Assays:
[1] = target: T1, ATR kinase (full-length ATR) (Homo sapiens, UniProt Q13535); assay: ATR Inhibition Assay (radioactive-phosphate incorporation); assay type: biochemical; settings: Ki(app); 5 nM full-length ATR, 10 μM ATP, 800 μM target peptide, 25° C.
T1 construct: in the presence of 5 nM full-length ATR
Protocol: Compounds were screened for their ability to inhibit ATR kinase using a radioactive-phosphate incorporation assay. Assays were carried out in a mixture of 50 mM Tris/HCl (pH 7.5), 10 mM MgCl2 and 1 mM DTT. Final substrate concentrations were 10 μM [γ-33P]ATP (3 mCi 33P ATP/mmol ATP, Perkin Elmer) and 800 μM target peptide (ASELPASQPQPFSAKKK (SEQ. ID NO: 1)).
Assays were carried out at 25° C. in the presence of 5 nM full-length ATR. An assay stock buffer solution was prepared containing all of the reagents listed above, with the exception of ATP and the test compound of interest. 13.5 μL of the stock solution was placed in a 96 well plate followed by addition of 2 μL of DMSO stock containing serial dilutions of the test compound (typically starting from a final concentration of 15 μM with 3-fold serial dilutions) in duplicate (final DMSO concentration 7%). The plate was pre-incubated for 10 minutes at 25° C. and the reaction initiated by addition of 15 μL [γ-33P]ATP (final concentration 10 μM).
The reaction was stopped after […] by the addition of 30 μL 0.1M phosphoric acid containing 2 mM ATP. A multiscreen phosphocellulose filter 96-well plate (Millipore, Cat no. MAPHN0B50) was pretreated with 100 μL 0.2M phosphoric acid prior to the addition of 45 μL of the stopped assay mixture. The plate was washed with 5×200 μL 0.2M phosphoric acid. After drying, 100 μL Optiphase ‘SuperMix’ liquid scintillation cocktail (Perkin Elmer) was added to the well prior to scintillation counting (1450 Microbeta Liquid Scintillation Counter, Wallac).
After removing mean background values for all of the data points, Ki(app) data were calculated from non-linear regression analysis of the initial rate data using the Prism software package (GraphPad Prism version 3.0cx for Macintosh, GraphPad Software, San Diego Calif., USA).

[2] = test system: HCT116 colorectal cancer cells; assay: Cisplatin Sensitization Assay (96 h cell viability MTS); assay type: cell-based; settings: concentration of compound required to reduce the IC50 of Cisplatin alone by at least 3-fold; HCT116, 96 h MTS
Protocol: Compounds can be screened for their ability to sensitize HCT116 colorectal cancer cells to Cisplatin using a 96 h cell viability (MTS) assay. […] Compounds and Cisplatin are then both added simultaneously to the cell media in 2-fold serial dilutions from a top final concentration of 10 μM as a full matrix of concentrations in a final cell volume of 200 μl, and the cells are then incubated at 37° C. in 5% CO2. After 96 h, 40 μl of MTS reagent (Promega G358a) is added to each well and the cells are incubated for 1 h at 37° C. in 5% CO2. Finally, absorbance is measured at 490 nm using a SpectraMax Plus 384 reader (Molecular Devices) and the concentration of compound required to reduce the IC50 of Cisplatin alone by at least 3-fold (to 1 decimal place) can be reported.

T1 sequence (Q13535 whole entry): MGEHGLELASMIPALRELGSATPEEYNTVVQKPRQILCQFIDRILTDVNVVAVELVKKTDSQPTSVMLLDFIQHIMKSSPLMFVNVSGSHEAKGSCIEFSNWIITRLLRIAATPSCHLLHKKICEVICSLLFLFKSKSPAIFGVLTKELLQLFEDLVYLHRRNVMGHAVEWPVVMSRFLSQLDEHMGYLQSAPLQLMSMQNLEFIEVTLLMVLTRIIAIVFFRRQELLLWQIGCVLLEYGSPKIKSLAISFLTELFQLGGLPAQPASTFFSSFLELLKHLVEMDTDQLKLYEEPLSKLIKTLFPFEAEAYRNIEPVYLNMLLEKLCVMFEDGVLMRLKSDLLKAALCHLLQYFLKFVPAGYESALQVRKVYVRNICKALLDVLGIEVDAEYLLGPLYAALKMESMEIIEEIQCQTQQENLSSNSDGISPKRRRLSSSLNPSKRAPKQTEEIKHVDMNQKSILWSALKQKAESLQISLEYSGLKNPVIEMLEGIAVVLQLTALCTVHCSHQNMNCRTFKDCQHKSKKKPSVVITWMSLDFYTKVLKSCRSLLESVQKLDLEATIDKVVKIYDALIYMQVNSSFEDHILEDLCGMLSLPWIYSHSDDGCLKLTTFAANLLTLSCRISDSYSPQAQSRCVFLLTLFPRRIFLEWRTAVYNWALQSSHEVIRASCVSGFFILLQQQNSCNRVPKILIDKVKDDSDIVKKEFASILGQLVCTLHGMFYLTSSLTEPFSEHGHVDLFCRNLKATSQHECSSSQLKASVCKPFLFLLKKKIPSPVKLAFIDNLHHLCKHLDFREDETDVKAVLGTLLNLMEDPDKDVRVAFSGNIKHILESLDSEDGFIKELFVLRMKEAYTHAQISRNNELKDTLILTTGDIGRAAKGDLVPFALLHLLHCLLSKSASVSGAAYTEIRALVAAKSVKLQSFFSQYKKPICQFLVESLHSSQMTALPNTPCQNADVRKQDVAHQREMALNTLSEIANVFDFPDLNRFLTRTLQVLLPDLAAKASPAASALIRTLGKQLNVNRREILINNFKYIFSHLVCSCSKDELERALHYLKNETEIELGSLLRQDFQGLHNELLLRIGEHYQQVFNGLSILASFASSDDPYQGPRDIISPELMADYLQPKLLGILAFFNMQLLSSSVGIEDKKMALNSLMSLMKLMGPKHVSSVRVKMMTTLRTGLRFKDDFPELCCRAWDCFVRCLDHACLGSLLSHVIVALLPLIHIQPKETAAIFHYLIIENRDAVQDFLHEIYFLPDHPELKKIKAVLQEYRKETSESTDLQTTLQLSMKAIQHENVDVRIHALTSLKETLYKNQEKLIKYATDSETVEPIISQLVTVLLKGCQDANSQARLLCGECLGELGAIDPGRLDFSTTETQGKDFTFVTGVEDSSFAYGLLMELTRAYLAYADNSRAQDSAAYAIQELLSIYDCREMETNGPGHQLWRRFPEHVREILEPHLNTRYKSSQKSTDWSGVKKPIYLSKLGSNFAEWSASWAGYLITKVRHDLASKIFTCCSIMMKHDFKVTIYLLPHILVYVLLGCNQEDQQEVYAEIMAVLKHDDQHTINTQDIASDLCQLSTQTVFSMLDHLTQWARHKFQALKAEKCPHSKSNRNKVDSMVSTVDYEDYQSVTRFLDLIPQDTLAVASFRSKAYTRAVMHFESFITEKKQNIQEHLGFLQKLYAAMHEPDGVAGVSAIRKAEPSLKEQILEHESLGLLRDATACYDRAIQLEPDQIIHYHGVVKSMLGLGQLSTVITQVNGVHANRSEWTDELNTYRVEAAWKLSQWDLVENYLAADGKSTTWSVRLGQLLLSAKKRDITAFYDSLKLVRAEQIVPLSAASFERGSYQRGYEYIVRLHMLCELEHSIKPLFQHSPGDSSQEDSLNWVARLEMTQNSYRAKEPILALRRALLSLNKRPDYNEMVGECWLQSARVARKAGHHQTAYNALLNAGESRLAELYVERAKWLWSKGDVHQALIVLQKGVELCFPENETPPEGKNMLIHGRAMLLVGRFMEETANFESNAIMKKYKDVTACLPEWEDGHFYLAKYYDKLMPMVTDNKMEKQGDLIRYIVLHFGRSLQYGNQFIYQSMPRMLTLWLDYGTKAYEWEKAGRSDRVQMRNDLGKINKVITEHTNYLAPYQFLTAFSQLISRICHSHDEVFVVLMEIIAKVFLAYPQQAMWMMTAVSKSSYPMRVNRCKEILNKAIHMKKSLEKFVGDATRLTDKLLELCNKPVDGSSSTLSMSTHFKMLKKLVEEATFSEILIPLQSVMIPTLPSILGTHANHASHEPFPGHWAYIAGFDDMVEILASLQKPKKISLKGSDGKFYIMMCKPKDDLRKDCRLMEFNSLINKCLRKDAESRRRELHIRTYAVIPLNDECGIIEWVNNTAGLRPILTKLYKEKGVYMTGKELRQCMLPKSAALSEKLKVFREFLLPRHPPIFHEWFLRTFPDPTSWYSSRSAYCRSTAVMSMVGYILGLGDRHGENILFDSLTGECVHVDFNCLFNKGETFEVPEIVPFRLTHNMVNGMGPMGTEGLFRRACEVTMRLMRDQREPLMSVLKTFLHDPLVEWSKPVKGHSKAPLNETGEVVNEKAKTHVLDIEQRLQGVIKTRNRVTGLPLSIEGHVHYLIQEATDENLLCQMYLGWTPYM

Row | Structure (SMILES) | Ki [1] [µM] | Cisplatin Sensitization Assay [2]
1 | Cc1ncccc1-c1cnccc1NC(=O)c1c(N)nn2cc(F)cnc12 [I-C-5, 2-amino-6-fluoro-N-(2′-methyl-[3,3′-bipyridin]-4-yl)pyrazolo[1,5-a]pyrimidine-3-carboxamide] | 0.01 to 1 | ++ (Compounds with a Cisplatin sensitization value >0.02 μM but <0.2 μM are marked with “++.”)
2 | CS(=O)(=O)C1CCN(c2cnccc2NC(=O)c2c(N)nn3cc(F)cnc23)CC1 [I-C-10, 2-amino-6-fluoro-N-(3-(4-(methylsulfonyl)piperidin-1-yl)pyridin-4-yl)pyrazolo[1,5-a]pyrimidine-3-carboxamide] | < 0.01 | +++ (Compounds with a Cisplatin sensitization value of <0.02 μM are marked with “+++.”)
3 | Cc1nsc(NC(=O)c2c(N)nn3cc(F)cnc23)c1-c1cnn(C)c1 [I-E-12, 2-amino-6-fluoro-N-(3-methyl-4-(1-methyl-1H-pyrazol-4-yl)isothiazol-5-yl)pyrazolo[1,5-a]pyrimidine-3-carboxamide] | 0.01 to 1 | ++ (Compounds with a Cisplatin sensitization value >0.02 μM but <0.2 μM are marked with “++.”)
4 | CC(C)Oc1ncncc1NC(=O)c1c(N)nn2cc(F)cnc12 [I-A-14, 2-amino-6-fluoro-N-(4-isopropoxypyrimidin-5-yl)pyrazolo[1,5-a]pyrimidine-3-carboxamide] | 0.01 to 1 | ++ (Compounds with a Cisplatin sensitization value >0.02 μM but <0.2 μM are marked with “++.”)
5 | Nc1nn2cc(F)cnc2c1C(=O)Nc1cncnc1O[C@H]1C[C@]2(CCN2)C1 [I-A-18, N-(4-((4s,6r)-1-azaspiro[3.3]heptan-6-yloxy)pyrimidin-5-yl)-2-amino-6-fluoropyrazolo[1,5-a]pyrimidine-3-carboxamide] | 1 to 5 | + (Compounds with a Cisplatin sensitization value >0.2 μM but <5 μM are marked with “+.”)
6 | Nc1nn2cc(F)cnc2c1C(=O)Nc1cncnc1O[C@@H]1CN2CCC1CC2 [I-A-4, (S)-2-amino-6-fluoro-N-(4-(quinuclidin-3-yloxy)pyrimidin-5-yl)pyrazolo[1,5-a]pyrimidine-3-carboxamide] | 0.01 to 1 | ++ (Compounds with a Cisplatin sensitization value >0.02 μM but <0.2 μM are marked with “++.”)
7 | Nc1nn2cc(F)cnc2c1C(=O)Nc1cncnc1O[C@H]1CN2CCC1CC2 [I-A-3, (R)-2-amino-6-fluoro-N-(4-(quinuclidin-3-yloxy)pyrimidin-5-yl)pyrazolo[1,5-a]pyrimidine-3-carboxamide] | 0.01 to 1 | ++ (Compounds with a Cisplatin sensitization value >0.02 μM but <0.2 μM are marked with “++.”)
8 | Nc1nn2cc(F)cnc2c1C(=O)Nc1cncn1C1CCOCC1 [I-D-4, 2-amino-6-fluoro-N-(1-(tetrahydro-2H-pyran-4-yl)-1H-imidazol-5-yl)pyrazolo[1,5-a]pyrimidine-3-carboxamide] | 0.01 to 1 | ++ (Compounds with a Cisplatin sensitization value >0.02 μM but <0.2 μM are marked with “++.”)
9 | Nc1nn2cc(F)cnc2c1C(=O)Nc1cnncc1N1CCCC1 [I-B-16, 2-amino-6-fluoro-N-(5-(pyrrolidin-1-yl)pyridazin-4-yl)pyrazolo[1,5-a]pyrimidine-3-carboxamide] | 1 to 5 | 
10 | CN1CCN(C2CCN(c3cnncc3NC(=O)c3c(N)nn4cc(F)cnc34)CC2)CC1 [I-B-24, 2-amino-6-fluoro-N-(5-(4-(4-methylpiperazin-1-yl)piperidin-1-yl)pyridazin-4-yl)pyrazolo[1,5-a]pyrimidine-3-carboxamide] | 0.01 to 1 | 
11 | COc1cnccc1NC(=O)c1c(N)nn2ccc(C(F)(F)F)nc12 [I-C-4, 2-amino-N-(3-methoxypyridin-4-yl)-5-(trifluoromethyl)pyrazolo[1,5-a]pyrimidine-3-carboxamide] | 0.01 to 1 | 

Source: patent publication US8957078B2, “Compounds useful as inhibitors of ATR kinase” (Vertex Pharmaceuticals Incorporated, priority 2013, dated 2015)
